{
  "source": "patent US20030203373A1",
  "about": "(priority 2002, published 2003)",
  "tested_on": "normotensive Wister rats",
  "assay": "Bradykinin-potentiating effect on blood pressure in anaesthetized normotensive rats",
  "assay_type": "in vivo, rat",
  "method": "In the in vivo experiments with normotensive rats the animals were previously anaesthetized and after blood pressure stabilization treated with a constant amount of bradykinin. Subsequently, either Captopril or human BPP were administered, again followed by a constant amount of bradykinin. Afterwards the maximum blood pressure drop was determined and, on the basis of bradykinin as a factor 1, the potentiating factor was determined. In the same way, the systolic and diastolic blood pressure, the percentage middle pressure decrease and the time required to come back to the baseline values were measured (see tables 4a to 4j). A detailed experimental description is given below.\n2. Measurement of Blood Pressure in Normotensive and Hypertensive Rats\nThe trials were conducted on female anaesthetized normotensive Wister rats with weight ranging from 210 to 240 g.\nThe peptide pANP48-57 used for the in vivo assays was synthesized by Biosynthan (Berlin) with a HPLC-determined purity of 98%.\nAnaesthetizing was performed by i.p.-administration of 1 ml/kg Ketavit (100 mg/ml)+Rampun (2%).\nIn order to conduct the blood pressure measurement, a polyethylene catheter was introduced into the Aorta femuralis and connected with a pressure transducer. A Statham-P23A pressure-transducer was linked to a Gould Polygraph and used to determine the arterial blood pressure. A Hg-manometer was used to calibrate the system.\nAll substances were dissolved and diluted in a physiological sodium chloride solution and introduced into the Vena jugularis via a catheter.\nAfter stabilization of blood pressure (after about 10 minutes) […] body weight of a 2,5 μM bradykinin-solution (Sigma) was administered.\nThe middle pressure was determined from the measured diastolic (pd) and systolic (ps) blood pressure by using the following formula: pm=(ps−Pd)×0,42+pd.",
  "key": {"[1]": {"conditions": "S605 1 × 10^−3 M + Bradykinin 2.5 × 10^−6 M"}, "[2]": {"conditions": "S605 1 × 10^−3 M + Bradykinin 2.5 × 10^−6 M, individual female rat"}, "[3]": {"conditions": "S605 1.5 × 10^−3 M + Bradykinin 2.5 × 10^−6 M"}, "[4]": {"conditions": "S605 1.5 × 10^−3 M + Bradykinin 2.5 × 10^−6 M, Rat (female) 216 g, Table 4j"}, "[5]": {"conditions": "S605 1.5 × 10^−3 M + Bradykinin 2.5 × 10^−6 M, individual female rat"}, "[6]": {"conditions": "S605 1.5 × 10^−4 M + Bradykinin 2.5 × 10^−6 M"}, "[7]": {"conditions": "S605 1.5 × 10^−4 M + Bradykinin 2.5 × 10^−6 M, individual female rat"}, "[8]": {"conditions": "S605 5 × 10^−3 M + Bradykinin 2.5 × 10^−6 M"}, "[9]": {"conditions": "S605 5 × 10^−3 M + Bradykinin 2.5 × 10^−6 M, Rat (female) 211 g, Table 4i"}, "[10]": {"conditions": "S605 5 × 10^−3 M + Bradykinin 2.5 × 10^−6 M, individual female rat"}},
  "note": "“And” between values parts separate entries of the source, which are not always exact repeats. Identical values can stand only once. “Also recorded” adds a separate entry of the source.",
  "data": [
    {"smiles": "CC(C)C[C@H](NC(=O)[C@H](C)N)C(=O)N[C@@H](CO)C(=O)N1CCC[C@H]1C(=O)N[C@@H](CC(C)C)C(=O)N1CCC[C@H]1C(=O)N[C@@H](CCC(=O)O)C(=O)N[C@H](C(=O)N1CCC[C@H]1C(=O)N1CCC[C@H]1C(=O)O)C(C)C", "note": "[Peptide S545]", "values": [
      {"measurement": "maximal drop of blood pressure", "setting": "[1]", "result": 48.5, "unit": "%"},
      {"measurement": "potentiating factor (Bradykinin = 1)", "setting": "[1]", "result": 1.49},
      {"measurement": "Blood pressure minimal, PM (middle pressure) = (Ps − Pd) × 0.42 + Pd", "setting": "[2]", "result": 39, "unit": "mg Hg"},
      {"measurement": "Blood pressure minimal, diastolic", "setting": "[2]", "result": 28, "unit": "mg Hg"},
      {"measurement": "Blood pressure minimal, systolic", "setting": "[2]", "result": 55, "unit": "mg Hg"},
      {"measurement": "time to reach the baseline value", "setting": "[2]", "result": "time to reach the baseline value (t = 31 s)"},
      {"measurement": "ΔP (middle pressure drop)", "setting": "[2]", "result": 37, "unit": "mg Hg"},
      {"measurement": "ΔP (middle pressure drop), percentage", "setting": "[2]", "result": 48.5, "unit": "%"},
      {"measurement": "maximal drop of blood pressure", "setting": "[3]", "result": "50.5% ± 5.2"},
      {"measurement": "potentiating factor (Bradykinin = 1)", "setting": "[3]", "result": 1.61},
      {"measurement": "Blood pressure minimal, PM (middle pressure) = (Ps − Pd) × 0.42 + Pd", "setting": "[4]", "result": 39, "unit": "mg Hg"},
      {"measurement": "Blood pressure minimal, diastolic", "setting": "[4]", "result": 28, "unit": "mg Hg"},
      {"measurement": "Blood pressure minimal, systolic", "setting": "[4]", "result": 55, "unit": "mg Hg"},
      {"measurement": "following short overreaction at maximum (systolic/diastolic)", "setting": "[4]", "result": "following short overreaction at maximum of 106/80"},
      {"measurement": "time to reach the baseline value", "setting": "[4]", "result": "time to reach the baseline value (t = 20 s)"},
      {"measurement": "ΔP (middle pressure drop)", "setting": "[4]", "result": 43, "unit": "mg Hg"},
      {"measurement": "ΔP (middle pressure drop), percentage", "setting": "[4]", "result": 52.4, "unit": "%"},
      {"measurement": "Blood pressure minimal, PM (middle pressure) = (Ps − Pd) × 0.42 + Pd", "setting": "[5]", "result": "40 mg Hg and 34 mg Hg"},
      {"measurement": "Blood pressure minimal, diastolic", "setting": "[5]", "result": "34 mg Hg and 26 mg Hg"},
      {"measurement": "Blood pressure minimal, systolic", "setting": "[5]", "result": "49 mg Hg and 45 mg Hg"},
      {"measurement": "time to reach the baseline value", "setting": "[5]", "result": "time to reach the baseline value (t = 46 s); also recorded: time to reach the baseline value (t = 57 s)"},
      {"measurement": "ΔP (middle pressure drop)", "setting": "[5]", "result": "32 mg Hg and 41 mg Hg"},
      {"measurement": "ΔP (middle pressure drop), percentage", "setting": "[5]", "result": "44.6% and 54.4%"},
      {"measurement": "maximal drop of blood pressure", "setting": "[6]", "result": "38.9% ± 8.3"},
      {"measurement": "potentiating factor (Bradykinin = 1)", "setting": "[6]", "result": 1.24},
      {"measurement": "Blood pressure minimal, PM (middle pressure) = (Ps − Pd) × 0.42 + Pd", "setting": "[7]", "result": "48 mg Hg and 34 mg Hg and 33 mg Hg"},
      {"measurement": "Blood pressure minimal, diastolic", "setting": "[7]", "result": "40 mg Hg and 26 mg Hg and 28 mg Hg"},
      {"measurement": "Blood pressure minimal, systolic", "setting": "[7]", "result": "60 mg Hg and 46 mg Hg and 40 mg Hg"},
      {"measurement": "time to reach the baseline value", "setting": "[7]", "result": "time to reach the baseline value (t = 26 s); also recorded: time to reach the baseline value (t = 36 s); also recorded: time to reach the baseline value (t = 23 s)"},
      {"measurement": "ΔP (middle pressure drop)", "setting": "[7]", "result": "22 mg Hg and 32 mg Hg and 20 mg Hg"},
      {"measurement": "ΔP (middle pressure drop), percentage", "setting": "[7]", "result": "31.4% and 47.9% and 37.4%"},
      {"measurement": "maximal drop of blood pressure", "setting": "[8]", "result": "63.8% ± 3.6"},
      {"measurement": "potentiating factor (Bradykinin = 1)", "setting": "[8]", "result": 2.04},
      {"measurement": "Blood pressure minimal, PM (middle pressure) = (Ps − Pd) × 0.42 + Pd", "setting": "[9]", "result": 44, "unit": "mg Hg"},
      {"measurement": "Blood pressure minimal, diastolic", "setting": "[9]", "result": 35, "unit": "mg Hg"},
      {"measurement": "Blood pressure minimal, systolic", "setting": "[9]", "result": 56, "unit": "mg Hg"},
      {"measurement": "following short overreaction at maximum (systolic/diastolic)", "setting": "[9]", "result": "following short overreaction at maximum of 141/108"},
      {"measurement": "time to reach the baseline value", "setting": "[9]", "result": "time to reach the baseline value (t = 44 s)"},
      {"measurement": "ΔP (middle pressure drop)", "setting": "[9]", "result": 70, "unit": "mg Hg"},
      {"measurement": "ΔP (middle pressure drop), percentage", "setting": "[9]", "result": 61.4, "unit": "%"},
      {"measurement": "following short overreaction at maximum of (systolic/diastolic blood pressure)", "setting": "S605 5 × 10^−3 M + Bradykinin 2.5 × 10^−6 M, after return to baseline", "result": "following short overreaction at maximum of 112/84; also recorded: following short overreaction at maximum of 154/112"},
      {"measurement": "Blood pressure minimal, PM (middle pressure) = (Ps − Pd) × 0.42 + Pd", "setting": "[10]", "result": "24 mg Hg and 40 mg Hg"},
      {"measurement": "Blood pressure minimal, diastolic", "setting": "[10]", "result": "16 mg Hg and 32 mg Hg"},
      {"measurement": "Blood pressure minimal, systolic", "setting": "[10]", "result": "36 mg Hg and 52 mg Hg"},
      {"measurement": "time to reach the baseline value", "setting": "[10]", "result": "time to reach the baseline value (t = 36 s); also recorded: time to reach the baseline value (t = 87 s)"},
      {"measurement": "ΔP (middle pressure drop)", "setting": "[10]", "result": "52 mg Hg and 66 mg Hg"},
      {"measurement": "ΔP (middle pressure drop), percentage", "setting": "[10]", "result": "68% and 62.1%"},
      {"measurement": "bradykinin-potentiating effect (short-time decrease of blood pressure induced by bradykinin)", "setting": "normotensive rats, result in words", "result": "concentration dependent bradykinin-potentiating"},
      {"measurement": "fold higher molecular concentration in comparison to Captopril required for the bradykinin-potentiating effect in vivo", "setting": "relative to Captopril", "result": 10, "unit": "fold"}
    ]}
  ]
}
